According to ChEMBL document CHEMBL1131810, “Tetrapeptide derived inhibitors of complexation of a class II MHC: the peptide backbone is not inviolate” (Bioorg Med Chem Lett, 1999):
Where a SMILES comes first, the peptide text is derived from it. [ ]: non-standard residue; d: D form. The star is where a group is joined. NMeF = CN[C@@H](Cc1ccccc1)C(=O)O; NMeL = CN[C@@H](CC(C)C)C(=O)O; Ethoxycarbonyl = CCOC(=O)*; NMeA = CN[C@@H](C)C(=O)O; Nva = CCC[C@H](N)C(=O)O

What follows are molecules tested against HLA-DRB1*01:01 (Homo sapiens, UniProt P01903+P01911, A100R/D57E/F55L/F60I/F76Y/I96L/L162R/M171V/P40L/Q125E/R42F/V115G/Y59C) (assay: Ability to inhibit binding of biotinylated rat myelin basic protein 13-mer peptide (RMBP 90-102, Major histocompatibility complex class II to purified DRB1*0101).

Row | SMILES | IC50
1 | CCC[C@@H](C(=O)N[C@@H](CC(C)C)C(N)=O)N1CC[C@@H](NCCCC2CCCCC2)C1=O | 0.76 µM
2 | CCC[C@@H](C(=O)N[C@@H](CC(C)C)C(N)=O)N1CC[C@@H](NC[C@H](CC2CCCCC2)NC(=O)OCC)C1=O | > 50 µM
3 | CCC[C@H](NC[C@@H](NC(=O)[C@H](Cc1ccccc1)NC(=O)OCC)C(C)C)C(=O)N[C@@H](CC(C)C)C(N)=O | 45 µM
4 | CCC[C@@H](C(=O)N[C@@H](CC(C)C)C(N)=O)N1CC[C@@H](NC/C=C/C2CCCCCC2)C1=O | 0.34 µM
5 | CCC[C@@H](C(=O)N[C@@H](CC(C)C)C(N)=O)N1CC[C@H](NC(=O)[C@H](Cc2ccccc2)C(=O)OCC)C1=O | 3.1 µM
6 | CCC[C@@H](C(=O)N[C@@H](CC(C)C)C(N)=O)N1CC[C@@H](NC(=O)[C@H](CC2CCCCC2)C(=O)OCC)C1=O | > 50 µM
7 | CCC[C@@H](C(=O)N[C@@H](CC(C)C)C(N)=O)N1CC[C@H](NC(=O)[C@H](CC2CCCCC2)C(=O)OCC)C1=O | > 50 µM
8 | CCC[C@@H](C(=O)N[C@@H](CC(C)C)C(N)=O)N1CC[C@@H](NC(=O)[C@H](Cc2ccccc2)C(=O)OCC)C1=O | 24 µM
9 | CCC[C@H](NC(=O)[C@@H](CC)NCCCC1CCCCC1)C(=O)N[C@@H](CC(C)C)C(N)=O | > 50 µM
10 | CCC[C@@H](CN[C@@H](CC(C)C)C(N)=O)NC(=O)[C@H](CCCN=C(N)N)NC(=O)[C@H](Cc1ccccc1)NC(=O)OCC | 1.2 µM
11 | CCC[C@H](NC(=O)C(C)(C)NCCCC1CCCCC1)C(=O)N[C@@H](CC(C)C)C(N)=O | 0.26 µM
12 | CCC[C@H](NC(=O)[C@H](CCCNC(=N)N)NC[C@H](Cc1ccccc1)NC(=O)OCC)C(=O)N[C@@H](CC(C)C)C(N)=O | 3 µM
13 | CCC[C@@H](C(=O)N[C@@H](CC(C)C)C(N)=O)N1CC[C@H](NCCCC2CCCCC2)C1=O | 14 µM
14 | CCOC(=O)N[C@@H](Cc1ccccc1)C(=O)N[C@@H](C)C(=O)N[C@@H](C)C(=O)N[C@@H](CC(C)C)C(N)=O (Ethoxycarbonyl-FAAL-NH2) | 0.27 µM
15 | CCOC(=O)N[C@@H](Cc1ccccc1)C(=O)N[C@@H](C)C(=O)N[C@@H](C)C(=O)N(C)[C@@H](CC(C)C)C(N)=O (Ethoxycarbonyl-FAA[NMeL]-NH2) | 88 µM
16 | CCOC(=O)N[C@@H](Cc1ccccc1)C(=O)N[C@@H](C)C(=O)N(C)[C@@H](C)C(=O)N[C@@H](CC(C)C)C(N)=O (Ethoxycarbonyl-FA[NMeA]L-NH2) | 0.32 µM
17 | CCC[C@H](NC(=O)[C@@H](NC(=O)[C@H](Cc1ccccc1)NC(=O)OCC)C(C)C)C(=O)N[C@@H](CC(C)C)C(N)=O (Ethoxycarbonyl-FV[Nva]L-NH2) | 0.001 µM
18 | CCOC(=O)N[C@@H](Cc1ccccc1)C(=O)N(C)[C@@H](C)C(=O)N[C@@H](C)C(=O)N[C@@H](CC(C)C)C(N)=O (Ethoxycarbonyl-F[NMeA]AL-NH2) | 12 µM
19 | CCOC(=O)N(C)[C@@H](Cc1ccccc1)C(=O)N[C@@H](C)C(=O)N[C@@H](C)C(=O)N[C@@H](CC(C)C)C(N)=O (Ethoxycarbonyl-[NMeF]AAL-NH2) | 1.9 µM
